According to PubChem BioAssay AID2060607 (Molecular Pharmacology Branch, DTP, NCI, 2025):

System: 876862-298-R-J1-PDC complex spheroids, viability % test/control
Assay: Anticancer human tumor 876862-298-R-J1-PDC patient-derived endometrial carcinoma cell line growth inhibition [CLK]
Conditions: for IC50: curve of first compound; for viability, T/C: stronger effect = lower value
Description: A high-throughput screen of multi-cell type tumor spheroids was designed to identify active combinations of […] and targeted small molecules. Complex spheroids include a stromal component modeled by human endothelial cells (HUVEC) and fibroblasts modeled by human mesenchymal stem cells (MSCs). The concentration ranges selected for each drug and investigational agent were based upon clinically achievable concentrations if the clinical Cmax of the agent was known.
Compounds. The drugs and investigational agents: cirtuvivint (SM08502; NSC835563), CC-671 (NSC850746), vemurafenib (NSC761431), tapotoclax (NSC804041), sotorasib (NSC818433), adagrasib (NSC831453), MRTX-1133 (NSC836407), BAY2416964 (NSC825713), copanlisib (NSC816437), inavolisib (NSC800729), abemaciclib (NSC768073), osimertinib (NSC779217), entinostat (NSC756642), eltanexor (KPT-8602, NSC794443), venetoclax (NSC766270), ceralasertib (NSC777638), bortezomib (NSC756655), olaparib (NSC753686), talazoparib (NSC767125), alisertib (NSC759677), peposertib (NSC802822), gemcitabine (NSC613327), 5-fluorouracil (NSC19893), SN-38 (NSC673596), oxaliplatin (NSC266046), paclitaxel (NSC125973), and doxorubicin (NSC123127), were obtained from the National Cancer Institute (NCI) Developmental Therapeutics Program Chemical Repository. The FDA-approved anticancer drug set is available from the Developmental Therapeutics Program at https://dtp.cancer.gov/organization/dscb/obtaining/available plates.htm. […] The stock solutions were prepared in dimethyl sulfoxide (DMSO, Sigma-Aldrich, St. Louis, MO, cat. D2650), except for the platinum complexes which were prepared in saline (Quality Biological, Gaithersburg, MD, cat. 114-055-101), at 800-fold the tested concentration and stored at -70 degrees C prior to their use. All drugs and investigational agents were tested over a range starting from a high concentration at or near the clinical Cmax and decreasing in half-log increments. If the clinical Cmax for an agent had not been determined, the highest concentration tested was 10 microM.
Cell Culture. All cells were maintained in an incubator at 37 degrees C and 5% CO2 with 95% humidity. The PDC lines were cultured according to standard operating procedures established by the NCI PDMR. Briefly, all PDCs were thawed and cultured in Matrigel-coated flasks prepared with a working solution of 1X Ham's F-12 nutrient mix, without supplementation (Invitrogen, Waltham, MA, cat. 11765054), 100 U/mL penicillin-streptomycin (Invitrogen, cat. 15140122), and 2.5% Matrigel (Corning Inc., Corning, NY, cat. 354248) for the first three passages. The 947758-054-R-J2-PDC line was cultured in 6B/Colon 1A media, which includes advanced DMEM/F-12 (Thermo Fisher Scientific, cat. 12634028), 10 mM HEPES (Thermo Fisher Scientific, cat. 15630080), 1X GlutaMAX supplement (Thermo Fisher Scientific, cat. 35050061), 0.1 mg/mL primocin (InvivoGen, cat. ant-pm-2), 10% defined fetal bovine serum, heat inactivated (HyClone Laboratories Inc., cat. SH30070.03HI), 1.25 mM N-Acetyl-L-cysteine (Sigma-Aldrich, cat. A9165), 10 mM nicotinamide (Sigma-Aldrich, cat. N0636), 1X B-27 supplement (Thermo Fisher Scientific, cat. 17504044), 1X N-2 supplement (Thermo Fisher Scientific, cat. 17502048), and 10 microM Y-27632 dihydrochloride (Tocris Bioscience, cat. 1254). The 876862-298-R-J1-PDC was cultured in 6E media, which includes all 6B/Colon 1A media components plus 50% L-WRN conditioned media (ATCC, cat. CRL-3276), 50 ng/mL recombinant human EGF recombinant protein (hEGF; Thermo Fisher Scientific, cat. PHG0311), 10 ng/mL recombinant human fibroblast growth factor 10 (hGFG-10; PeproTech, cat. 100-26), 1 ng/mL recombinant human fibroblast growth factor 2 (hFGF-2; PeproTech, cat. 100-18B), and 1 µM prostaglandin E2 (PGE2; Tocris, cat. 2296). The 227483-062-R1-J1-PDC line was cultured in Panc media, containing all 6E components except hFGF-2, with the addition of 500 nM SB-431542 (Selleckchem, cat. S1067) and 10 nM gastrin (Tocris, cat. 3006). […]
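Note: spheroids exposed to drugs for 7 days before readout.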
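Throughout, for viability, T/C: 100% = DMSO vehicle control wells.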

Q: How did the IC50 (second compound 0.0316 µM) turn out when `CCCS(=O)(=O)Nc1ccc(F)c(C(=O)c2c[nH]c3ncc(-c4ccc(Cl)cc4)cc23)c1F` + CN1CCN(c2cc(C(=O)Nc3cc4cc(-c5cnn(C)c5)ccc4cn3)ccn2)CC1 was run?
A: Its IC50 is 6760 nM.

Q: What about the IC50 (second compound 0.1 µM) of the same compound?
A: The IC50 was 974 nM.

Q: And the IC50 (second compound 0.316 µM)?
A: Its IC50 is < 31.6 nM.

Q: What about the IC50 (second compound 1 µM) of the same compound?
A: Its IC50 is < 31.6 nM.

Q: What about the IC50 (second compound 3.16 µM) of the same compound?
A: The IC50 was < 31.6 nM.

Q: What about the IC50 (second compound 10 µM) of the same compound?
A: Its IC50 is < 31.6 nM.

Q: And the viability, T/C (second compound 0.0316 µM, first compound 0.0316 µM)?
A: Its viability, T/C is 103%.

Q: And the viability, T/C (second compound 0.0316 µM, first compound 0.1 µM)?
A: Its viability, T/C is 93.4%.

Q: And the viability, T/C (second compound 0.0316 µM, first compound 0.316 µM)?
A: The viability, T/C was 89.2%.

Q: What about the viability, T/C (second compound 0.0316 µM, first compound 1 µM) of the same compound?
A: Its viability, T/C is 101%.

Q: And the viability, T/C (second compound 0.0316 µM, first compound 3.16 µM)?
A: Its viability, T/C is 77.1%.

Q: What about the viability, T/C (second compound 0.0316 µM, first compound 10 µM) of the same compound?
A: The viability, T/C was 36.1%.

Q: What about the viability, T/C (second compound 0.1 µM, first compound 0.0316 µM) of the same compound?
A: Its viability, T/C is 63.4%.

Q: And the viability, T/C (second compound 0.1 µM, first compound 0.1 µM)?
A: Its viability, T/C is 51.6%.

Q: And the viability, T/C (second compound 0.1 µM, first compound 0.316 µM)?
A: Its viability, T/C is 53.1%.

Q: What about the viability, T/C (second compound 0.1 µM, first compound 1 µM) of the same compound?
A: The viability, T/C was 50.7%.

Q: And the viability, T/C (second compound 0.1 µM, first compound 3.16 µM)?
A: The viability, T/C was 42.2%.

Q: And the viability, T/C (second compound 0.1 µM, first compound 10 µM)?
A: The viability, T/C was 22.5%.

Q: What about the viability, T/C (second compound 0.316 µM, first compound 0.0316 µM) of the same compound?
A: Its viability, T/C is 4.72%.

Q: What about the viability, T/C (second compound 0.316 µM, first compound 0.1 µM) of the same compound?
A: The viability, T/C was 3.82%.

Q: And the viability, T/C (second compound 0.316 µM, first compound 0.316 µM)?
A: Its viability, T/C is 5.6%.

Q: And the viability, T/C (second compound 0.316 µM, first compound 1 µM)?
A: The viability, T/C was 5.09%.

Q: And the viability, T/C (second compound 0.316 µM, first compound 3.16 µM)?
A: Its viability, T/C is 5.93%.

Q: And the viability, T/C (second compound 0.316 µM, first compound 10 µM)?
A: The viability, T/C was 3.83%.

Q: What about the viability, T/C (second compound 1 µM, first compound 0.0316 µM) of the same compound?
A: Its viability, T/C is 0.82%.

Q: And the viability, T/C (second compound 1 µM, first compound 0.1 µM)?
A: The viability, T/C was 1.88%.

Q: And the viability, T/C (second compound 1 µM, first compound 0.316 µM)?
A: The viability, T/C was 1.54%.

Q: And the viability, T/C (second compound 1 µM, first compound 1 µM)?
A: Its viability, T/C is 2.17%.

Q: And the viability, T/C (second compound 1 µM, first compound 3.16 µM)?
A: The viability, T/C was 3.28%.

Q: What about the viability, T/C (second compound 1 µM, first compound 10 µM) of the same compound?
A: The viability, T/C was 1.25%.

Q: And the viability, T/C (second compound 3.16 µM, first compound 0.0316 µM)?
A: Its viability, T/C is 1.32%.

Q: What about the viability, T/C (second compound 3.16 µM, first compound 0.1 µM) of the same compound?
A: Its viability, T/C is 2.22%.

Q: What about the viability, T/C (second compound 3.16 µM, first compound 0.316 µM) of the same compound?
A: The viability, T/C was 9.57%.

Q: And the viability, T/C (second compound 3.16 µM, first compound 1 µM)?
A: Its viability, T/C is 1.58%.

Q: And the viability, T/C (second compound 3.16 µM, first compound 3.16 µM)?
A: The viability, T/C was 2.88%.

Q: What about the viability, T/C (second compound 3.16 µM, first compound 10 µM) of the same compound?
A: Its viability, T/C is 2.88%.

Q: And the viability, T/C (second compound 10 µM, first compound 0.0316 µM)?
A: Its viability, T/C is 1.06%.

Q: And the viability, T/C (second compound 10 µM, first compound 0.1 µM)?
A: The viability, T/C was 1.12%.

Q: What about the viability, T/C (second compound 10 µM, first compound 0.316 µM) of the same compound?
A: Its viability, T/C is 1.23%.

Q: And the viability, T/C (second compound 10 µM, first compound 1 µM)?
A: The viability, T/C was 10.9%.

Q: And the viability, T/C (second compound 10 µM, first compound 3.16 µM)?
A: The viability, T/C was 7.9%.

Q: And the viability, T/C (second compound 10 µM, first compound 10 µM)?
A: The viability, T/C was 2.22%.
